What was measured:
[1] = Expert rating of hair switches for frizz, clean feel and greasy feel (5 point scale) after high humidity; details: 1% in ethanol/water leave-on
Experimental: (§1) Additional leave-on treatment compositions are prepared (Tables 1 and 2) according to the procedure described above, which are used to treat hair switches using the procedure described above (amount of 0.10 g of composition per g of hair). […] Then, ten experts are asked to rate each hair switch in terms of frizz, clean feel, and greasy feel, based on a 5 point scale, 5 being the highest and 1 being the lowest rating.
Acceptable values are: • For frizz, less than 2 (lower number corresponds to less frizz); • For no greasy feel less than 3, (lower number corresponds to less greasy feel), and • For clean feel greater than 3 (higher number corresponds to cleaner feel).
as §1, with “(Tables 6” for “(Tables 1”, “and 7)” for “and 2)”, “rating. Acceptable values are: • For frizz, less than 2 (lower number corresponds to less frizz); • For no greasy feel less than 3, (lower number corresponds to less greasy feel), and • For clean feel greater than 3 (higher number corresponds to cleaner feel).” for “rating.”

[2] = Penetration amount of moisture control material inside hair (extraction with 0.1% TFA in methanol, HPLC); details: 2% 2-hydroxyethyl urea versus composition without (example III and IV)
Experimental: Each hair tress is extracted 3 times with 0.1% TFA (Trifluoroacetic acid) in methanol and the individual extracts are analyzed separately using HPLC method.

[3] = Dynamic Vapor Sorption (DVS) measurement: % water reduction of treated hair versus control
Experimental: The % water reduction is calculated as follows: […]
Leave-on Treatment Formulation: […]

| Structure (SMILES) | hair switch rating (frizz, clean feel, greasy feel), in words [1] | increase of penetration of salicylic acid inside hair by 2-hydroxyethyl urea [2] [%] | % water reduction in regimen, in words [3] |
| --- | --- | --- | --- |
| O=C(O)c1ccc(O)cc1O [2,4-Dihydroxybenzoic acid] | provide fizz protection with clean feel and without greasy feel negative |  |  |
| CCCCCCCCC(CO)CCCCCC (stereo not drawn) [2-Hexyl-1-decanol] | provide frizz protection with clean feel and without greasy feel negative |  |  |
| O=C(OCCO)c1ccccc1O [2-Hydroxyethyl salicylate] | provide frizz protection with clean feel and without greasy feel negative |  |  |
| O=S(=O)(O)c1ccc(O)cc1 [4-Hydroxybenzenesulphonic acid] | provide fizz protection with clean feel and without greasy feel negative |  |  |
| O=C(O)c1cc(Cl)ccc1O [5-Chlorosalicylic acid] | provide fizz protection with clean feel and without greasy feel negative |  |  |
| CC(C)CCCCCCCCCCCCCCCOC(=O)CCCCCCCCCCCCCCC(C)C [Isostearyl isostearate] | provide frizz protection with clean feel and without greasy feel negative |  |  |
| O=C(O)c1ccccc1O [Salicylic acid] | provide fizz protection with clean feel and without greasy feel negative | 14 |  |
| O=CC(=O)O [glyoxylic acid] |  |  | further increase % water reduction |

— patent US10561591B2, “Hair care regimen using compositions comprising moisture control materials” (The Procter & Gamble Company, priority 2015, dated 2020)
